Test results as given in PMC3608651, “A Broad Profile of Co-Dominant Epitopes Shapes the Peripheral Mycobacterium tuberculosis Specific CD8+ T-Cell Immune Response in South African Patients with Active Tuberculosis” (PLoS ONE, 2013).
Where two headings read alike, the source gives them in different places.

How the values were obtained:
Format in all cases: binding
HLA-A*24:02 [1] = biological target: T1, HLA-A*24:02 (Homo sapiens, UniProt P04439, D101N/D140Y/D185E/E176V/E190D/F33S/G103R/G107R/I119L/I121M/I306V/K335N/L105A/L180Q/L300P/N151K/N90K/Q86E/Q94H/R106L/R138H/R89G/T104I/T345S/V100E/W191G/Y123F)
HLA-C*07:01 = HLA-C*07:01 (Homo sapiens, UniProt P10321, K90N/S123Y); conditions: duplicated experiments, positive binder >40%
HLA-A*24:02 [2] = biological target: T1, HLA-A*24:02; conditions: duplicated experiments, positive binder >40%
HLA-A*02:01 [3] = biological target: T2, HLA-A*02:01 (Homo sapiens, UniProt P04439, D140Y/D185E/D98H/E176V/E277Q/G131W/G231S/I119V/I121R/I166T/I218V/L300P/L318F/N151K/N90K/P208A/P217A/Q86G/Q94H/R138H/R169H/T345S); conditions: plate-bound monomer 0.5 µg/ml, duplicated experiments, positive binder >40%
HLA-B*07:02 = HLA-B*07:02 (Homo sapiens, UniProt P01889); conditions: percent relative the binding of positive control peptide […]; duplicated experiments; positive binder >40%
HLA-A*30:01 = HLA-A*30:01 (Homo sapiens, UniProt P04439, D140H/D185E/E176W/F33S/G80R/H175R/K168Q/R138E/R41S); conditions: duplicated experiments, positive binder >40%
HLA-A*68:01 [4] = biological target: T3, HLA-A*68:01 (Homo sapiens, UniProt P04439, A269V/D185E/E176V/E277Q/E87N/F33Y/G231S/I121M/I166T/I218V/L180W/L300P/L318F/N151K/P208A/P217A/Q86R/R169H/T345S); conditions: duplicated experiments, positive binder >40%
HLA-A*24:02 [5] = biological target: T1, HLA-A*24:02; conditions: time points 0-8 h
HLA-A*30:02 [6] = biological target: T4, HLA-A*30:02 (Homo sapiens, UniProt P04439, D101N/D140H/D185E/E176R/F33S/G80R/H175R/K168Q/Q94H/R138E/R41S/V100E); conditions: duplicated experiments, positive binder >40%
HLA-B*58:01 [7] = biological target: T5, HLA-B*58:01 (Homo sapiens, UniProt P01889, A329T/C349S/D201E/D98Y/E176V/E187L/E204Q/E69T/G107R/I218V/I90N/K202T/L105A/L119I/N104I/N87E/Q89R/Q94S/R106L/R155S/R180L/R86G/S101N/S121R/S35A/S48A/T118I/V127L/V306I/V36M/Y140S/Y91M); conditions: duplicated experiments, positive binder >40%
HLA-A*02:01 [8] = biological target: T2, HLA-A*02:01; conditions: peptide quantity for 50% binding saturation
HLA-A*30:02 [9] = biological target: T4, HLA-A*30:02
HLA-A*30:02 [10] = biological target: T4, HLA-A*30:02; conditions: time points 0-8 h
HLA-A*68:01 [11] = biological target: T3, HLA-A*68:01; conditions: time points 0-8 h
HLA-B*58:01 [12] = biological target: T5, HLA-B*58:01; conditions: time points 0-8 h
HLA-A*68:01 [13] = biological target: T3, HLA-A*68:01
HLA-A*02:01 [14] = biological target: T2, HLA-A*02:01; conditions: time points 0-8 h; time when 50% of peptide has dissociated
HLA-B*58:01 [15] = biological target: T5, HLA-B*58:01
[16] = peptide titrated 10−4 to 10−9 M
[17] = percent relative the binding of positive control peptide KYFDEHYEY
[18] = percent relative the binding of positive control peptide RYLKDQQLL
[19] = percent relative the binding of positive control peptide FLPSDFFPSV
[20] = percent relative the binding of positive control peptide KTKDIVNGL
[21] = percent relative the binding of positive control peptide KTGGPIYKR
[22] = percent relative the binding of positive control peptide KIQNFRVYY
[23] = percent relative the binding of positive control peptide IAMESIVIW
[24] = percent relative the binding of positive control peptide […]

Row | Substance | Bind B*07:02 (HLA-B*07:02) [%] | O-rate A*24:02 (t1/2) (HLA-A*24:02 [5]) [min] | Bind C*07:01 (HLA-C*07:01; [24]) [%] | Bind A*24:02 (HLA-A*24:02 [2]; [24]) [%] | Bind A*02:01 (HLA-A*02:01 [3]; [24]) [%] | Bind A*30:01 (HLA-A*30:01; [24]) [%] | Bind A*68:01 (HLA-A*68:01 [4]; [24]) [%] | O-rate A*30:02 (t1/2) (HLA-A*30:02 [10]) [min] | Bind A*30:02 (HLA-A*30:02 [6]; [24]) [%] | Bind B*58:01 (HLA-B*58:01 [7]; [24]) [%] | Aff A*24:02 (ED50) (HLA-A*24:02 [1]) | further results
1 | AYQGVQQKW [Rv3875_50–58] | 10 | 24 | – | – | – | – | – | – | – | – | – | Aff A*24:02 (ED50) (HLA-A*24:02 [1]; [16]): 1e-08 M; Bind C*07:01 (HLA-C*07:01; [17]): 0%; Bind A*24:02 (HLA-A*24:02 [2]; [18]): 60%; Bind A*02:01 (HLA-A*02:01 [3]; [19]): 0%; Bind A*30:01 (HLA-A*30:01; [20]): 0%; Bind A*68:01 (HLA-A*68:01 [4]; [21]): 6%; Bind A*30:02 (HLA-A*30:02 [6]; [22]): 33%; Bind B*58:01 (HLA-B*58:01 [7]; [23]): 35%
2 | GT HSWEYWG | 3 | – | 25 | 2 | 43 | 0 | 71 | 132 | 79 | 58 | – | Aff A*02:01 (ED50) (HLA-A*02:01 [8]; […]): 2E -06 M; Aff A*30:02 (ED50) (HLA-A*30:02 [9]): 3e-05 M; O-rate A*68:01 (t1/2) (HLA-A*68:01 [11]): 12 min; O-rate B*58:01 (t1/2) (HLA-B*58:01 [12]): 174 min; Aff A*68:01 (ED50) (HLA-A*68:01 [13]): 1E -05 M; O-rate A*02:01 (t1/2) (HLA-A*02:01 [14]): 18 min; Aff B*58:01 (ED50) (HLA-B*58:01 [15]): 3e-07 M
3 | AMASTEGNV [Rv3875_82–90] | 11 | – | – | – | – | – | – | 150 | – | – | – | Aff A*02:01 (ED50) (HLA-A*02:01 [8]; [16]): 3e-08 M; Aff A*30:02 (ED50) (HLA-A*30:02 [9]; [16]): 7e-09 M; Bind C*07:01 (HLA-C*07:01; [17]): 3%; Bind A*24:02 (HLA-A*24:02 [2]; [18]): 0%; Bind A*02:01 (HLA-A*02:01 [3]; [19]): 87%; Bind A*30:01 (HLA-A*30:01; [20]): 0%; Bind A*68:01 (HLA-A*68:01 [4]; [21]): 0%; Bind A*30:02 (HLA-A*30:02 [6]; [22]): 102%; O-rate A*02:01 (t1/2) (HLA-A*02:01 [14]): 60 min; Bind B*58:01 (HLA-B*58:01 [7]; [23]): 0%
4 | QWLSANRAV | 25 | 24 | 11 | 110 | 21 | 39 | 13 | 72 | 120 | 0 | 2e-06 M | Aff A*30:02 (ED50) (HLA-A*30:02 [9]): 7E -08 M
5 | GYAGTLQNL [Rv0288_20–28m1] | – | 18 | – | 68 | – | – | – | – | – | – | 1e-07 M | –
6 | VQQKWDATA [Rv3875_54–62] | 9 | – | – | – | – | – | – | 96 | – | – | – | Aff A*02:01 (ED50) (HLA-A*02:01 [8]; [16]): 5e-09 M; Aff A*30:02 (ED50) (HLA-A*30:02 [9]; [16]): 6e-08 M; Bind C*07:01 (HLA-C*07:01; [17]): 9%; Bind A*24:02 (HLA-A*24:02 [2]; [18]): 0%; Bind A*02:01 (HLA-A*02:01 [3]; [19]): 54%; Bind A*30:01 (HLA-A*30:01; [20]): 21%; Bind A*68:01 (HLA-A*68:01 [4]; [21]): 0%; Bind A*30:02 (HLA-A*30:02 [6]; [22]): 76%; O-rate A*02:01 (t1/2) (HLA-A*02:01 [14]): 72 min; Bind B*58:01 (HLA-B*58:01 [7]; [23]): 12%
7 | MYNYPAMLD [Rv0288_5–13m2] | – | 24 | – | 60 | – | – | – | 42 | 59 | – | 3e-08 M | Aff A*30:02 (ED50) (HLA-A*30:02 [9]): 2e-06 M
8 | SGSEAYQGV [Rv3875_46–54] | 9 | 30 | – | – | – | – | – | – | – | – | – | Aff A*24:02 (ED50) (HLA-A*24:02 [1]; [16]): 9e-09 M; Bind C*07:01 (HLA-C*07:01; [17]): 24%; Bind A*24:02 (HLA-A*24:02 [2]; [18]): 54%; Bind A*02:01 (HLA-A*02:01 [3]; [19]): 22%; Bind A*30:01 (HLA-A*30:01; [20]): 0%; Bind A*68:01 (HLA-A*68:01 [4]; [21]): 0%; Bind A*30:02 (HLA-A*30:02 [6]; [22]): 0%; Bind B*58:01 (HLA-B*58:01 [7]; [23]): 2%
9 | KAGCQTYKW | 9 | 114 | 31 | 140 | 22 | 13 | 25 | – | 45 | 193 | 7E -08 M | O-rate B*58:01 (t1/2) (HLA-B*58:01 [12]): 480 min; Aff B*58:01 (ED50) (HLA-B*58:01 [15]): 3E -08 M
10 | GWDINTPAF | 22 | 66 | 10 | 146 | 0 | 11 | 5 | – | 0 | 0 | 1E -07 M | –
11 | MYNYPTMLD [Rv0288_5–13m3] | – | 30 | – | 76 | – | – | – | – | 0 | – | 2e-08 M | –
12 | TYKW ETFLT | 3 | 30 | 0 | 118 | 36 | 0 | 4 | – | 13 | 0 | 2e-06 M | –
13 | MYNYPTMLG [Rv0288_5–13m1] | – | 30 | – | 47 | – | – | – | – | 23 | – | 2e-07 M | –
14 | YWGAQLNAM | 12 | 30 | 0 | 113 | 11 | 0 | 16 | – | 63 | 0 | 8e-09 M | –
